{"source": "patent US20250114582A1", "about": "“METHOD FOR EFFICIENT DRUG ADMINISTRATION ACROSS THE BLOOD-BRAIN BARRIER AND USES THEREOF” (Carthera, priority 2023, published 2025)", "key": {"[1]": {"conditions": "plasma kinetics used for the model; cited from earlier work"}, "[2]": {"assay": "dose-limiting toxicity, tolerability and safety of carboplatin delivered with concomitant LIPU/MB-based BBB opening", "type": "in vivo, human", "from_the_text": "For the Phase 1 (escalation of the number of active emitters/beams), the main objective was to identify the Maximum Tolerated Dose (“MTD”) defined as the highest active-beams level at which ≤1 DLT occurred in a maximum of 6 patients by cohort. […]\n(§1) The secondary endpoints included the frequency and severity of adverse events (incidence of adverse events summarized by system organ class and/or preferred term and severity) based on the CTCAE, version 5.0, the time to and localization of recurrence(s) on magnetic resonance imaging, feasibility of the procedure considering the time required for the sonication (from beginning of needle connection to the end of ultrasound emission and needle extraction) at the first 3 sonications of each patient, and the total time for SonoCloud 9 positioning using the SonoCloud 9 template. Six-month progression-free survival (6m-PFS), median progression-free survival (mPFS), and 1-year overall survival (1y-OS) and median OS (mOS) were also evaluated. In this trial, time to progression or to death was calculated from time of surgery/device implantation to time of events.\nAll patients were clinically assessed at least once a month (prior to the next cycle) and included standard laboratory blood analyses (complete blood counts, chemistry with liver and kidney function tests), and also a contrast-enhanced MRI within 2 days prior to sonication. Patients discontinued the study if tumor progression was identified according to the Response Assessment in Neuro-Oncology criteria (Wen et al., 2010, J. Clin. Oncol. 28:1963-1972). For patients continuing the study, subsequent MRI exam was to be performed immediately after LIPU/MB treatment."}, "[3]": {"test_system": "recurrent Glioblastoma Multiforme (GBM)", "assay": "phase 1/2a clinical trial: carboplatin with LIPU/microbubble BBB opening (SonoCloud-9), clinical outcomes", "type": "in vivo, human", "experimental": "A prospective, open-label, multi-center, single-arm, dose escalation, phase 1/2a clinical trial was conducted enrolling recurrent Glioblastoma Multiforme (“GBM”) patients at four clinical sites in France and two sites in the United States. All patients provided written informed consent in accordance with institutional guidelines. Approval was obtained from the ANSM (French National Health Agency) and from the US FDA (Food and Drug Administration). The study was conducted in accordance with good clinical practices. The study began in February 2019 and follow-up was completed in November 2022.\nThe trial was designed to evaluate the safety and efficacy of transient disruption of the blood-brain barrier by low intensity pulsed ultrasound (“LIPU”) with an implantable ultrasound device, i.e., the SonoCloud-9 implantable device (“SC9”; Carthera, Lyon, France). The trial first evaluated the Dose Limiting Toxicity (“DLT”) of escalating numbers of ultrasound beams (3, 6, and 9 beams) at constant acoustic pressure (1.03 MPa) using a 3+3 dose escalation design (cohorts A, B and C) and then confirmed the safety and efficacy of BBB opening in two expansion cohorts (cohorts C & D).\nas §1\nThe SC9 device contains no internal energy source and is activated on demand by connecting the device to an external generator using a transdermal needle, as shown in FIG. 7A. Each sonication step consists of the generation of sequential pulses from each emitter (1 MHz, 25 ms pulse, 0.5 Hz, 270 seconds) in combination with the IV administration of the ultrasound resonator (microbubbles [MB], Definity®/Luminity® 10 μL/kg, Lantheus, N. Billerica, MA). The ultrasound resonator is injected as a 30-second bolus at the start of the ultrasound sonication procedure. Sonication was performed prior (within 60 minutes) to the carboplatin chemotherapy at cycles 1, 2 and 3 and no more than 30 minutes before the start of carboplatin therapy for the following cycles, for cohorts A, B, and C. For cohort D, the sonication was performed immediately after the completion of the carboplatin infusion. After completion of the six sonication cycles specified in the protocol or in the case of progression/premature discontinuation of the trial and prior to the end of study visit, the removal of the device could be performed unless considered as contra-indicated by the investigator or refused by the patient.\nStandard carboplatin chemotherapy using any FDA/ANSM-approved, therapeutically equivalent carboplatin injectable drug product, with a target AUC of 4-6 mg/ml*min (AUC as per local practice and investigators judgement) was given according to the Calvert formula (Calvert et al., 1989, J. Clin. Oncol. 7:1748-1756). Cycles were to be repeated every 4 weeks provided the absolute neutrophil count had recovered to ≥1500 cells/mm^3 and the platelet count was at least 100,000 cells/mm^3. Subsequent dosages were adjusted for toxicity as needed per local practice."}, "[4]": {"test_system": "recurrent Glioblastoma Multiforme (GBM)", "assay": "contrast enhancing tumor progression assessment on MRI in the clinical trial", "type": "in vivo, human", "conditions": "for tumor growth rate (median): hyperintense T1w volume in region targeted by the implant", "experimental": "To evaluate the local effect of the treatment, an analysis was performed using the monthly pre-ultrasound and end-of-study MR images. The T1w contrast-enhancing tumor-related region segmented with a semi-automatic method (ITK Snap) (Yushkevich et al. 2006, Neuroimage 31:1116-1128). The total volume of this hyperintense region was evaluated at each treatment cycle in the whole brain, and in the region targeted by the implant, considering nine […] cylinders in front of the emitters. This region corresponded to 10×75 mm cylinders with an additional diffusion margin of 5 mm (Goldwirt et al., 2016, Cancer Chemother. Pharmacol. 77:211-216).\nTo further evaluate tumor progression likelihood as a function of distance to the region targeted by the emitters, the difference of this hyperintense volume between the last MRI and the first cycle was used as a progression mask. The distribution of the volume of this progression mask relative to the distance to the axes of the nine emitters was computed."}, "[5]": {"conditions": "CTCAE Grade 3, N = 34, related to the investigational procedure"}, "[6]": {"conditions": "CTCAE all grade, N = 34, related to the investigational procedure"}, "[7]": {"conditions": "cohort C, carboplatin after US (N = 15)"}, "[8]": {"conditions": "cohort D, carboplatin before US (N = 12)"}, "[9]": {"conditions": "cohorts C + D (N = 27), 9 emitters activated"}}, "note": "“And” between values parts separate entries of the source, which are not always exact repeats. Identical values can stand only once. “Also recorded” adds a separate entry of the source.", "data": [{"smiles": "CC(=O)O[C@H]1C(=O)[C@@]2(C)[C@H]([C@H](OC(=O)c3ccccc3)[C@]3(O)C[C@H](OC(=O)[C@H](O)[C@@H](NC(=O)c4ccccc4)c4ccccc4)C(C)=C1C3(C)C)[C@]1(OC(C)=O)CO[C@@H]1C[C@@H]2O", "note": "[paclitaxel]", "values": [{"measurement": "alpha half-life", "setting": "[1]", "value": "~0.5", "unit": "h"}, {"measurement": "beta half-life", "setting": "[1]", "value": "several hours"}]}, {"smiles": "N.N.O=C([O-])C1(C(=O)[O-])CCC1.[Pt+2]", "note": "[carboplatin]", "values": [{"measurement": "General disorders and administration site conditions", "setting": "[2]; [5]", "value": "1 (3%)"}, {"measurement": "Infections and infestations", "setting": "[2]; [5]", "value": "2 (6%)"}, {"measurement": "Nervous system disorders", "setting": "[2]; [5]", "value": "3 (9%)"}, {"measurement": "Patients with Any Related TEAEs (Overall)", "setting": "[2]; [5]", "value": "12 (35%)"}, {"measurement": "Skin and subcutaneous tissue disorders", "setting": "[2]; [5]", "value": "6 (18%)"}, {"measurement": "Anxiety", "setting": "[2]; [6]", "value": "1 (3%)"}, {"measurement": "Aphasia", "setting": "[2]; [6]", "value": "4 (12%)"}, {"measurement": "Balance disorder", "setting": "[2]; [6]", "value": "1 (3%)"}, {"measurement": "Cerebrospinal fluid leakage", "setting": "[2]; [6]", "value": "2 (6%)"}, {"measurement": "Confusional state", "setting": "[2]; [6]", "value": "1 (3%)"}, {"measurement": "Depression", "setting": "[2]; [6]", "value": "1 (3%)"}, {"measurement": "Diplopia/Vision blurred", "setting": "[2]; [6]", "value": "6 (17%)"}, {"measurement": "Dizziness", "setting": "[2]; [6]", "value": "8 (24%)"}, {"measurement": "Dysarthria", "setting": "[2]; [6]", "value": "2 (6%)"}, {"measurement": "Ear and labyrinth disorders", "setting": "[2]; [6]", "value": "2 (6%)"}, {"measurement": "Fatigue/Asthenia", "setting": "[2]; [6]", "value": "6 (18%)"}, {"measurement": "General disorders and administration site conditions", "setting": "[2]; [6]", "value": "8 (24%)"}, {"measurement": "Headache", "setting": "[2]; [6]", "value": "7 (21%)"}, {"measurement": "Hypoaesthesia", "setting": "[2]; [6]", "value": "1 (3%)"}, {"measurement": "Implant site pain", "setting": "[2]; [6]", "value": "1 (3%)"}, {"measurement": "Infections and infestations", "setting": "[2]; [6]", "value": "2 (6%)"}, {"measurement": "Injury, poisoning and procedural complications", "setting": "[2]; [6]", "value": "3 (9%)"}, {"measurement": "Lacunar stroke", "setting": "[2]; [6]", "value": "1 (3%)"}, {"measurement": "Language disorder", "setting": "[2]; [6]", "value": "1 (3%)"}, {"measurement": "Meningocele acquired", "setting": "[2]; [6]", "value": "3 (9%)"}, {"measurement": "Monoparesis", "setting": "[2]; [6]", "value": "1 (3%)"}, {"measurement": "Nervous system disorders", "setting": "[2]; [6]", "value": "25 (74%)"}, {"measurement": "Pain of skin", "setting": "[2]; [6]", "value": "19 (56%)"}, {"measurement": "Paraesthesia", "setting": "[2]; [6]", "value": "3 (9%)"}, {"measurement": "Patients with Any Related TEAEs (Overall)", "setting": "[2]; [6]", "value": "33 (97%)"}, {"measurement": "Post procedural oedema", "setting": "[2]; [6]", "value": "1 (3%)"}, {"measurement": "Presyncope", "setting": "[2]; [6]", "value": "2 (6%)"}, {"measurement": "Psychiatric disorders", "setting": "[2]; [6]", "value": "2 (6%)"}, {"measurement": "Scar", "setting": "[2]; [6]", "value": "1 (3%)"}, {"measurement": "Seizure", "setting": "[2]; [6]", "value": "2 (6%)"}, {"measurement": "Skin and subcutaneous tissue disorders", "setting": "[2]; [6]", "value": "19 (56%)"}, {"measurement": "Subarachnoid haemorrhage", "setting": "[2]; [6]", "value": "1 (3%)"}, {"measurement": "Vertigo", "setting": "[2]; [6]", "value": "2 (6%)"}, {"measurement": "Wound infection/Postoperative wound infection", "setting": "[2]; [6]", "value": "2 (6%)"}, {"measurement": "grade 4 events", "setting": "[2]; CTCAE, all implanted patients", "value": "No grade 4 events"}, {"measurement": "tolerability of device implantation and repeated BBB opening procedure", "setting": "[2]; all patients", "value": "well-tolerated"}, {"measurement": "pattern of hematological and non-hematological toxicities secondary to carboplatin", "setting": "[2]; e.g. bone marrow suppression, anemia, vomiting", "value": "as expected"}, {"measurement": "Dose Limiting Toxicity (DLT)", "setting": "[2]; sonication plus carboplatin, 3, 6 and 9 beams", "value": "No DLTs"}, {"measurement": "1-yr OS", "setting": "[3]; [7]", "value": "46.7% and 47%"}, {"measurement": "9-month OS", "setting": "[3]; [7]", "value": 67, "unit": "%"}, {"measurement": "mOS", "setting": "[3]; [7]", "value": 11.8, "unit": "months"}, {"measurement": "mPFS", "setting": "[3]; [7]", "value": 2.5, "unit": "months"}, {"measurement": "1-yr OS", "setting": "[3]; [8]", "value": "58.3% and 58%"}, {"measurement": "9-month OS", "setting": "[3]; [8]", "value": 75, "unit": "%"}, {"measurement": "mOS", "setting": "[3]; [8]", "value": 14.0, "unit": "months"}, {"measurement": "mPFS", "setting": "[3]; [8]", "value": 3.1, "unit": "months"}, {"measurement": "1-yr OS", "setting": "[3]; [9]", "value": 52, "unit": "%"}, {"measurement": "9-month OS", "setting": "[3]; [9]", "value": 70, "unit": "%"}, {"measurement": "mOS", "setting": "[3]; [9]", "value": 12.4, "unit": "months"}, {"measurement": "mPFS", "setting": "[3]; [9]", "value": 2.7, "unit": "months"}, {"measurement": "tumor growth rate (median)", "setting": "[4]; cohort C (carboplatin after sonication)", "value": 2.31, "unit": "mL/month"}, {"measurement": "evolution of the T1w enhancement outside the sonication field", "setting": "[4]; cohort C vs cohort D, region targeted by the implant excluded (p=0.55)", "value": "no significant difference"}, {"measurement": "tumor growth rate (median)", "setting": "[4]; cohort D (carboplatin before sonication)", "value": 0.54, "unit": "mL/month"}, {"measurement": "in-field tumor control", "setting": "[4]; cohort D compared to cohort C", "value": "Better in-field tumor control"}, {"measurement": "local tumor progression probability (% ROI volume covered with hyperintense tumor at end of study vs distance to emitter axis)", "setting": "[4]; cohort D vs cohort C, up to 10 mm radius from emitter axes (significant up to 7.5 mm)", "value": "less likelihood; also recorded: lower"}, {"measurement": "alpha half-life", "setting": "[1]", "value": "~1", "unit": "h"}, {"measurement": "beta half-life", "setting": "[1]", "value": "~6", "unit": "h"}]}]}
